Assay results taken from publication PMC11206852, “Solubility, pH-Solubility Profile, pH-Rate Profile, and Kinetic Stability of the Tyrosine Kinase Inhibitor, Alectinib” (Pharmaceuticals, 2024).
“Also recorded” adds a separate entry of the source.

Key:
[1] = design: method as in PMID 23639470; settings: 20 to 300 mg every 12 h; cited from earlier work
[2] = solubility study in water and different solvents; format: physicochemical; settings: thermodynamic from solid
Procedure: Then, they were covered with aluminum foil to exclude the light effect. Then, all tubes were put in a water bath at 25 ± 1 °C and 50 rpm for 48 h to reach equilibrium. After that, the samples were filtered using a 0.22 µm filter, and 1 mL was injected into the HPLC. Any sample with a high reading was diluted with the mobile phase.

[3] = cited from earlier work
[4] = heat and accelerated stability study of solution in methanol; format: physicochemical
Procedure: Then, the rate constant of degradation at each temperature was calculated, and the shelf life of the solution at each temperature was calculated.

[5] = cited from earlier work; remark: listed apart in the source
[6] = design: method as in PMID 21575866; settings: compared with free plasma concentration; cited from earlier work
[7] = pH stability and pH-rate profile; format: physicochemical; settings: methanolic citrate buffer, pH 3.5, 5 and 6.2
Procedure: A citrate buffer at three pH values was prepared as described above (pH of 3.5, 5, and 6.2). […] The aim was to calculate the rate constant at each pH level and plot it against the pH values.

[8] = known description, no reference given; cited from earlier work
[9] = photostability in solution and solid state; format: physicochemical
[10] = design: method as in PMID 25153538; settings: non-fasting conditions; cited from earlier work
pH-solubility profile = format: physicochemical; settings: for solubility at 48 h: aqueous buffer
Procedure: All buffers were at a concentration of 0.05 M. The experiment was performed in the same way as the previous experiment on solubility.

[11] = sink conditions for dissolution test at pH 6.8 and 4.5; format: physicochemical; settings: 37 °C, 24 h, dose 150 mg, media M1-M16
Procedure: The sink conditions are necessary to perform a successful dissolution test for oral solid dosage forms. […] Phosphate buffer (pH of 6.8) and acetate buffer (pH of 4.5) were prepared. Then, SLS, Tween 80, and ethanol were tried in different concentrations to achieve the target.

[12] = short-term (24 h) stability of solution in methanol; format: physicochemical; settings: room temperature
[13] = cited from earlier work; remark: listed apart in the source
NCI-H2228 cell line = test system: NCI-H2228 cell line; design: method as in PMID 25205428; settings: oral administration, cited from earlier work

CCc1cc2c(cc1N1CCC(N3CCOCC3)CC1)C(C)(C)c1[nH]c3cc(C#N)ccc3c1C2=O.Cl [ALBHCL, 9-ethyl-6,6-dimethyl-8-[4-(morpholin-4-yl)piperidin-1-yl]-11-oxo-6,11-dihydro-5H-benzo[b]carbazole-3-carbonitrile-hydrochloride]
time of peak plasma levels after administration [1]: 2.00 to 4.61 h
solubility at 48 h ([2]; PEG 400, organic solvent or mixture, PEG400, 25 °C, read-out: solubility): 260 ± 6 µg/mL
solubility at 48 h ([2]; organic solvent or mixture, DMSO, 25 °C, read-out: solubility): 4500 ± 6.1 µg/mL
solubility at 48 h ([2]; organic solvent or mixture, THF, 25 °C, read-out: solubility): 280.9 ± 2.4 µg/mL
solubility at 48 h ([2]; organic solvent or mixture, acetonitrile, 25 °C, read-out: solubility): 150.2 ± 1.1 µg/mL
solubility at 48 h ([2]; organic solvent or mixture, chloroform, 25 °C, read-out: solubility): 620.3 ± 0.58 µg/mL
solubility at 48 h ([2]; organic solvent or mixture, ethanol, 25 °C, read-out: solubility): 210 ± 4.5 µg/mL
solubility at 48 h ([2]; organic solvent or mixture, methanol, 25 °C, read-out: solubility): 1991 ± 7.2 µg/mL
solubility at 48 h ([2]; propylene glycol, organic solvent or mixture, PG, 25 °C, read-out: solubility): 211 ± 5.8 µg/mL
solubility at 48 h ([2]; water, 25 °C, read-out: absolute solubility): 10.3 ± 1.2 µg/mL
adverse drug reaction: drug-induced liver injury [3]: 1.3%
adverse drug reaction: interstitial lung disease [3]: 1.3%
adverse drug reaction: photosensitivity reaction [3]: 5.3%
adverse drug reaction: stomatitis [3]: 3.3%
adverse drug reaction: weight gain [3]: 9.9%
nephrotoxicity [3]: reported in rare cases
bradycardia ([3]; increased exposure, ref Pruis et al. 17): linked to bradycardia
rate constant K1 (at 25 °C) ([4]; extrapolated to 25 °C): 0.00075 h⁻¹
half-life ([4]; solution in methanol, 25 °C): 38.5 days
shelf-life of solution ([4]; solution in methanol, 25 °C, 0.105/K25): 140 h
rate constant of degradation (first-order) K50 °C ([4]; solution in methanol, 50 °C): 0.01013 h⁻¹
rate constant of degradation (first-order) K55 °C ([4]; solution in methanol, 55 °C): 0.01382 h⁻¹
rate constant of degradation (first-order) K60 °C ([4]; solution in methanol, 60 °C): 0.02579 h⁻¹
route of most elimination [5]: feces
measured concentrations in the blood-cerebrospinal fluid (CSF) barrier [6]: approximately equal to the free concentration of ALBHCl in plasma
effect of pH on stability [7]: increasing the pH would increase stability
solubility in water, descriptive [8]: practically insoluble
remained intact after exposure to light ([9]; solid powder, 36 h light): 82%
recovery from analysis of the powder ([9]; solid powder, light, up to 36 h): 99%
half-life at 50 µg/mL ([9]; solution in methanol exposed to light, solution, light, room temperature, read-out: half-life of photodegradation (converted)): 0.346 days
intact ALBHCL remaining after exposure to light ([9]; solution in methanol, 36 h light): 32%
rate constant of photodegradation (first-order) K ([9]; solution, light): 0.0829 h⁻¹
increase of AUC [10]: 20%
increase of Cmax [10]: 20%
solubility at 48 h (pH-solubility profile; pH 3.5, citrate buffer 0.05 M): 50 µg/mL
solubility at 48 h (pH-solubility profile; pH 5, citrate buffer 0.05 M): 25.8 µg/mL
stability at pH 1.2 (pH-solubility profile; pH 1.2, chloride buffer, chromatogram after 24 h): showed degradation; also recorded: instability
pH of maximum solubility (pH-solubility profile; pH 1.2 to 10): 3.5
dissolution media that fulfilled sink conditions [11]: phosphate buffer 6.8 + 2% SLS (M3), phosphate buffer 6.8 + 5% Tween 80 (M6), acetate buffer 4.5 + 2% SLS (M11), and acetate buffer 4.5 + 5% Tween 80 (M14)
duration of stability of solutions [12]: 24 h
lipophilicity [13]: highly lipophilic
logP ([13]; no method or reference given): 5.5
tumor regression (NCI-H2228 cell line; NCI-H2228 cell line): notable regression
ED50 of tumor suppression (NCI-H2228 cell line; tumor-bearing mice): 0.46 mg/kg
